Experimental data taken from BindingDB's records for doi:10.1016/j.bmcl.2015.05.094 (Orleans University, 2015).
pIC50: −log10 of the molar value.

Assay: Antagonist activity at human alpha-7 nicotinic acetylcholine receptor expressed in rat GH3 cells assessed as inhibition of epibatidine-induced Ca2+ influx preincubated for 5 mins followed by epibatidine induction measured for 3 mins by fluorescence assay

SMILES: COc1ccc(CC2C[N+]3(C)CCC2CC3)cc1 (stereo unspecified)
- pIC50: 4.91
